A short description of data set [1]: Pharmacokinetics and oral bioavailability in the mouse. It counts as in vivo.
Procedure: A single administration at the dose of 10 mg/kg was given and three male animals for each route were used. […] After capping and vortex mixing, the plate was centrifuged for 15 minutes at 4000 rpm. The supernatant was considered as final extract and injected onto the LC-MS-MS system (UPLC system: Waters Acquity using BEH C18 50*2.1 mm 1.7 μm analytical column; MS instrument: Waters TQD equipped with Electro-Spray source operating in positive ion mode). Lower limit of quantification is 5.0 ng/mL, upper limit of quantification is 5000 ng/mL. Non-compartmental method (linear trapezoidal rule and linear regression analysis of natural log-transformed plasma concentrations vs. time data) was used. Absolute bioavailability (F) was calculated from the ratio of average oral to IV (intravenous) dose-normalized plasma AUC (area under curve) values.
For another data set, the target named is PARP-3 (Homo sapiens (Human), UniProt Q9Y6F1). As to conditions: read-out: PARP-3 (DC50 μM); probe P1.
In another data set the target is PARP-2 (Homo sapiens (Human), UniProt Q9UGN5). The following applies: probe P1.
The subject of data set [2] is hydrogen peroxide induced PAR formation in HeLa cells. Put plainly: cells. The following applies: Homo sapiens, read-out: PAR assay (IC50 μM).
Procedure: Cellular activity of PARP-1 inhibitors was assessed by measuring the inhibition of the hydrogen peroxide induced PAR formation in HeLa cells (ECACC). Cellular PAR levels were measured by immunocytochemistry, and quantified using an ArrayScan vTi instrument (Cellomics Thermo Scientific).
Studies were performed as follows: 6000 cells/well were seeded in 96 well plates (Perkin Elmer) in MEM/10% FCS and incubated for 24 hours at 37° C., 5% carbon dioxide. Test compounds were then added at the required concentration for 30 minutes. DNA damage was then induced adding hydrogen peroxide at the concentration of 0.1 mM for 15 minutes. Concentration curves were prepared in MEM/10% FCS from compound stocks in DMSO, and final DMSO concentration was 0.002% (v/v). Duplicate wells for each concentration point were prepared with a typical highest compound concentration of 20 μM and serial dilution 1:3. Plates were dried and fixed adding cold methanol-acetone (70:30) solution for 15 minutes at room temperature, fixing solution was aspired and wells were air dried for 5 minutes and then dehydrated in PBS. Non-specific binding sites were blocked by incubating wells for 30 minutes in PBS containing 5% (w/v) FBS 0.05% tween20. Wells were then incubated for 1 hour at room temperature in PBS containing anti PAR mouse monoclonal antibody (Anti-PAR, Mouse mAb 10H, Tulip Cat N° 1020) diluted 1:200 in blocking solution. After 3 washes in PBS, wells incubated in PBS (w/v) 5% FBS 0.05% Tween20 containing 2 μg/mL Cy2-conjugated Goat anti mouse secondary antibody (Amersham Pharmacia Biotech cat. N° PA 42002) (Absorption maximum 489 nm fluorescence maximum 506 nm) and 1 μg/mL DAPI (Absorption maximum 359 nm fluorescence maximum 461 nm) (4′,6-diamidino-2-phenyindole dilactate) (Sigma cat. N° D9564), a high sensitivity dye for nucleic acid staining. After washing further 3 times in PBS, cellular PAR immunoreactivity was assessed using the ArrayScan vTi instrument, with a Zeiss 10×0.5 N.A. objective, and applying the Cytotoxicity. V3 algorithm (Cellomics/Thermo Fisher) with a XF100 filter. At least 10 fields, corresponding to at least 900 cells, were read for each well.
X is the logarithm of concentration, IC50 is the response; IC50 starts at bottom and goes to top with a sigmoid shape.
For the next data set, the target named is PARP-1 (Homo sapiens (Human), UniProt P09874).
Sequence of PARP-1 (P09874 whole entry): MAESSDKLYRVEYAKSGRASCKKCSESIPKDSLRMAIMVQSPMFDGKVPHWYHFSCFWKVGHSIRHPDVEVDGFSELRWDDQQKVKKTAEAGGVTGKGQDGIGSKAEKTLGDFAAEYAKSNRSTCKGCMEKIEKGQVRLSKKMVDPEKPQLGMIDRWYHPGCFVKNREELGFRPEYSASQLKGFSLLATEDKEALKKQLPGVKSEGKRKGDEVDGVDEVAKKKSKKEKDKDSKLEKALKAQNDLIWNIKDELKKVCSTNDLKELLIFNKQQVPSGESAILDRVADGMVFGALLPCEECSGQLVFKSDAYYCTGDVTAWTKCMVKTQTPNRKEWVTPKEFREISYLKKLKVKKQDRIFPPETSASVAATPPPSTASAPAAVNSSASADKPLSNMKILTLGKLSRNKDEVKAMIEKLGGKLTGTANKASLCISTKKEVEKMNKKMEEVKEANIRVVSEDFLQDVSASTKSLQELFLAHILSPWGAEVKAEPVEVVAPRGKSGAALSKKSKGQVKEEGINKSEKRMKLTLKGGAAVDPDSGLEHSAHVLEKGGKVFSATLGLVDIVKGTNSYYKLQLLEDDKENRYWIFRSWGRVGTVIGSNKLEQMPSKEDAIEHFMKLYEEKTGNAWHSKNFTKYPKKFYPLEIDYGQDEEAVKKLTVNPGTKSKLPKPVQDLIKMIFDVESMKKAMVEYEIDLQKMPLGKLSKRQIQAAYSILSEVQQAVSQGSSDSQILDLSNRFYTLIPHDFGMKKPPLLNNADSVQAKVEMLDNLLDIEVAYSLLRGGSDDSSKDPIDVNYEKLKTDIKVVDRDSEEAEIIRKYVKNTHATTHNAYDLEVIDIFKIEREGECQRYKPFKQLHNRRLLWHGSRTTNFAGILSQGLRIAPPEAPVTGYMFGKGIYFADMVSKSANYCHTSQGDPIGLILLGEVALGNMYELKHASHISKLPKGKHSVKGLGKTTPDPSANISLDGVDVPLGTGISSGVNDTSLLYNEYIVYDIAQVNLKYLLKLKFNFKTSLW
Data set [3] concerns ovarian cancer patients with confirmed BRCA-1 mutations. The following applies: phase I, monotherapy, preliminary data; cited from earlier work.

Sequence of PARP-2 (Q9UGN5 whole entry): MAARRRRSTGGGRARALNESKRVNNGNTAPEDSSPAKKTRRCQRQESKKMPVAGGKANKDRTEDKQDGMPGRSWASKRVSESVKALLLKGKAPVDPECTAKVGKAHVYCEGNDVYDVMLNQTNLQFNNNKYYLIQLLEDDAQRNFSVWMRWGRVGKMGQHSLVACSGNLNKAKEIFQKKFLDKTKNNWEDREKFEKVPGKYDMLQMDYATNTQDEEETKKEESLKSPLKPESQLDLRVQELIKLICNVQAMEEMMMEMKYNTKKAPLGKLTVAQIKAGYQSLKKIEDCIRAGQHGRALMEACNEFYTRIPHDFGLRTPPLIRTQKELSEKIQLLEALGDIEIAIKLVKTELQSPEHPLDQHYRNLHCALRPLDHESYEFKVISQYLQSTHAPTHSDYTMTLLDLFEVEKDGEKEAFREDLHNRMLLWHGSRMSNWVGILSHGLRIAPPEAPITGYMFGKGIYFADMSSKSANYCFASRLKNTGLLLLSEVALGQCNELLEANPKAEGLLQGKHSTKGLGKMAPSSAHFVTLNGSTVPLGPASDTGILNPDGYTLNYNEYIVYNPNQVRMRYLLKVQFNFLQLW
Sequence of PARP-3 (Q9Y6F1 whole entry): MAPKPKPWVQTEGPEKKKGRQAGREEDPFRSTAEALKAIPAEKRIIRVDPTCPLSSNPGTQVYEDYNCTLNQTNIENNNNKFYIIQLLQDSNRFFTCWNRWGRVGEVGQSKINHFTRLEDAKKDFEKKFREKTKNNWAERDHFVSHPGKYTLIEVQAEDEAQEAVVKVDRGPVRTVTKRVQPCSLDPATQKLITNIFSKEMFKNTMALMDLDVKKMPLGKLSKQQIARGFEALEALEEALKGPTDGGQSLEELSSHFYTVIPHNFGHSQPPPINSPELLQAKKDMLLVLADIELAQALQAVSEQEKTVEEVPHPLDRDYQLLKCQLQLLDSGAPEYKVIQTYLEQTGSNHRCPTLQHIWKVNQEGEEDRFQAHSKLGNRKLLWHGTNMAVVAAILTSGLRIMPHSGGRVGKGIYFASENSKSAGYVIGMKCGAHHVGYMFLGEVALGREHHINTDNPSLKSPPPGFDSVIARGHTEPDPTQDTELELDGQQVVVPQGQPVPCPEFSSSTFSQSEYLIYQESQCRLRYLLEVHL
Procedure for PARP-1: (§1) Affinity evaluation of the tested compounds and their selectivity with respect to the different PARP isoforms of interest was assessed in a displacement assay.
(§2) a) providing a reaction mixture containing:
(§3) the PARP protein isoform under investigation,
a compound of formula (IP):
(§4) wherein R11 is hydrogen or a methyl group, B is (CH2)n—NH group wherein n is 2 to 6; m is 0 or 1 and X^− is a counterion, and
serial dilutions of the test compound;
(§5) b) comparing the polarization signal generated in the absence of the test compound with the one generated in the presence of different concentrations of the test compound, and
(§6) c) evaluating the ability of the test compound to displace the compound of formula (IP) as defined above indicated from a decreased fluorescence polarization level.
(§7) The 5H-phenanthridin-6-one-derived probe (IP) was selected for its capability of binding to the PARP proteins, both encompassing full-length native proteins and fragment thereof.
(§8) The polarization signal can be measured, e.g., by a plate reader such as the Saphire2 (Tecan). Data analysis was performed, e.g., by using the Dynafit software. Displacement data were also fitted, e.g., by using Excel spreadsheet (Microsoft Inc. Seattle, USA) to a four parameter logistic model (4PL), or Hill-Slope model. The assay was used to test compounds of the present invention. […] Specific probes of formula (IP) used in the assay are: • P1. 9-Dimethylamino-11,11-dimethyl-1-(3-{methyl-[(6-oxo-5,6-dihydro-phenanthridin-2-ylcarbamoyl)-methyl]-carbamoyl}-propyl)-2,3,4,11-tetrahydro-naphtho[2,3-g]quinolinium trifluoroacetate; • P2. 9-Dimethylamino-11,11-dimethyl-1-[3-(3-{[(6-oxo-5,6-dihydro-phenanthridin-2-ylcarbamoyl)-methyl]-amino}-propylcarbamoyl)-propyl]-2,3,4,11-tetrahydro-naphtho[2,3-g]quinolinium trifluoroacetate; • P3. 9-Dimethylamino-11,11-dimethyl-1-[3-(6-{[(6-oxo-5,6-dihydro-phenanthridin-2-ylcarbamoyl)-methyl]-amino}-hexylcarbamoyl)-propyl]-2,3,4,11-tetrahydro-naphtho[2,3-g]quinolinium trifluoroacetate.
Procedure for PARP-2: as §1, §2, §3
a compound of formula (IP):
as §4
serial dilutions of the test compound;
as §5, §6, §7, §8
Procedure for PARP-3: as §1, §2, §3
a compound of formula (IP):
as §4
serial dilutions of the test compound;
as §5, §6, §7, §8

Turning to `Cn1c2cccc(C(N)=O)c2c(=O)n1C1CCN(C2CCC(F)(F)CC2)CC1` [Compound 6, 2-[1-(4,4-difluorocyclohexyl)piperidin-4-yl]-1-methyl-3-oxo-2,3-dihydro-1H-indazole-4-carboxamide], the clearance in data set [1] (male, Balb, Nu/Nu, plasma, IV bolus 10 mg/kg, mean, read-out: CL (IV bolus)) came to 52.7 mL/min/kg. In addition, the Vd in data set [1] (male, Balb, Nu/Nu, plasma, IV bolus 10 mg/kg, mean, read-out: Vdss (IV bolus)) is 2.9 L/kg. Also, the AUC (commonly concentration integrated over time) in data set [1] (male, Balb, Nu/Nu, plasma, oral 10 mg/kg, mean) was 3.87 µM·h. In data set [1] (male, Balb, Nu/Nu, plasma, oral 10 mg/kg, mean, read-out: T½ (oral) (converted)), the half-life was 67.8 min. In addition, the “C-max (oral)” value in data set [1] (oral 10 mg/kg, mean) stood at 3.07 µM. Besides, in data set [1] (oral vs IV dose-normalized AUC, 10 mg/kg), the “F on AUC” value is given as 49%. Moreover, the DC50 is 2.34 µM on PARP-3; 3.95 µM at PARP-2 (read-out: PARP-2 (DC50 μM)); < 0.25 µM at PARP-1 (read-out: PARP-1 (DC50 μM), probe P1, <0.25 = assay sensitivity limit). For the same compound, the Kd – broadly, the constant that tells how readily two partners part at equilibrium – at PARP-2 (read-out: PARP-2 (Kd μM)) was 1.88 µM; at PARP-1 (read-out: PARP-1 (Kd μM), probe P3, <0.01 = assay sensitivity limit) it was < 0.01 µM. Further, the IC50 (in general, the concentration that gives 50% inhibition) in data set [2] stood at 0.1 µM.

Take `O=C(c1cc(Cc2n[nH]c(=O)c3ccccc23)ccc1F)N1CCN(C(=O)C2CC2)CC1` [Olaparib]: in data set [3], the partial responses was 4 out of 10.

The values above are taken from US9073893B2, “3-Oxo-2,3-dihydro-1H-indazole-4-carboxamide derivatives as PARP-1 inhibitors” (priority 2011, dated 2015).
